Laboratory results as given in patent publication US4029780A, “3-Piperazinyl 1,2,4-benzothiadiazine 1,1-dioxide derivatives their compositions and method of use” (Dainippon Pharmaceutical Co., Ltd., priority 1974, dated 1977).

Experiments:
[1] = literature, cited from earlier work
[2] = literature; cited from earlier work
[3] = system: Spontaneously hypertensive male rats; assay: Antihypertensive activity in spontaneously hypertensive rats (oral, 10 successive days); format: in vivo, rat; details: for Blood pressure / Fall in blood pressure: 10 mg/kg/day p.o.
Method: Spontaneously hypertensive male rats [SHR, Jap. Circ. J. 27, 282-93 (1963)] being 18-23 weeks of age and having systolic blood pressure levels of 170-190 mmHg were used. The test compounds were each suspended in a 0.5% aqueous tragacanth solution and administered orally in a dose of 10 mg/kg/day by stomach tube to SHR once a day for 10 successive days. The blood pressure of conscious SHR was measured prior to dosing and 5 hours after administration. It was also measured once daily over a period of 7 days after the end of the treatment period. The measurement of the blood pressure was made by a plethysmographtail method [Jap. Circ. J. 27, 282-93 (1963)].

Male Wistar rats [4] = assay: Effect on blood glucose (b), intraperitoneal; details: 300 mg/kg i.p.; for Effect on blood glucose level: rats
Method: (b) Male Wistar rats weighing 260-285 g were used. […] 4 ml/kg of the above solution of each test compound was intraperitoneally administered to each animal. The blood samples were taken prior to dosing and 1, 3 and 6 hours after the administration and the plasma glucose levels were determined in a similar manner to that described in (a).

Male Wistar rats [5] = assay: Effect on blood glucose (a), oral; details: 300 mg/kg p.o.; for Effect on blood glucose level: rats
Method: (a) Male Wistar rats weighing 190-210 g were used. Each test compound was suspended in a concentration of 150 mg/ml in a 0.5% aqueous tragacanth solution and orally administered at a dose of 300 mg/kg by the stomach tube.

Male Wistar rats [6] = assay: Effect on urine volume and electrolyte excretion; format: in vivo, rat; details: for Urine volume: 5 hours; for Cl- / K+ / Na+ / Na+/K+: urinary excretion over 5 hours
Method: Male Wistar rats weighing 220 to 260 g were used. Each test compound was suspended in a solution of tragacanth dissolved in a concentration of 0.5% in a 0.9% saline solution so that the volume of the resulting suspension to be administered would be always 25 ml/Kg. The test compounds were administered orally by the stomach tube to the animals at the prescribed doses. The animals were then placed in a metabolic cage and the urine was collected over a period of 5 hours. The total amount of sodium, potassium and chloride excreted was determined by Auto-Analyzer, made by Technicon Instruments Corporation.

[7] = system: Spontaneously hypertensive rats; assay: Glucose tolerance test; details: 300 mg/kg p.o. once a day, 22 days; 1.25 g/kg oral glucose
Method: Spontaneously hypertensive rats weighing 360 to 400 g were used. Each of the test compounds was suspended in a 0.5% aqueous tragacanth solution, and orally administered to the animals at a dose of 300 mg/kg once a day for 22 consecutive days. The control group was given only the 0.5% aqueous tragacanth solution. After the final administration, the animals were caused to fast for 20 hours, and subjected to a glucose tolerance test by an oral application of 1.25 g/kg of glucose.

[8] = Toxicity (LD50), JCL-SD rats; details: rat, in vivo
Description: (§1) Male and female JCL-ICR strain mice, weighing 20-30 g (each group: 8 mice), and male and female JCL-SD strain rats, weighing 150-250 g (each group: 8 rats) were used.

[9] = Toxicity (LD50), JCL-ICR mice; details: mouse, in vivo
Description: as §1

[10] = day 0, 5 hours after administration
[11] = day 2, 5 hours after administration
[12] = day 4, 5 hours after administration
[13] = day 6, 5 hours after administration
[14] = day 8, 5 hours after administration
[15] = day 10, 24 hours after the final treatment
[16] = day 14, 120 hours after the final treatment
[17] = iv, female, dissolved with stoichiometric NaOH, 95% confidence limits in parentheses
[18] = iv, male, dissolved with stoichiometric NaOH, 95% confidence limits in parentheses
[19] = po, female, suspended in 0.5% tragacanth
[20] = po, male, suspended in 0.5% tragacanth
[21] = sc, female, dissolved with stoichiometric NaOH
[22] = sc, male, dissolved with stoichiometric NaOH

NC1=Nc2cc(C(F)(F)F)ccc2S(=O)(=O)N1 [6-trifluoromethyl-3-amino-2H-1,2,4-benzothiadiazine 1,1-dioxide]
Antihypertensive activity [1]: substantially the same degree of antihypertensive activity as diazoxide | Antidiuretic activity [2]: antidiuretic activity similar to that of diazoxide

CN1CCN(C2=Nc3ccccc3S(=O)(=O)N2)CC1 [Compound B, 3-(4-methyl-1-piperazinyl)-2H-1,2,4-benzothiadiazine 1,1-dioxide]
Blood pressure [3, 10]: 167 mm Hg | Blood pressure ([3]; day 0, prior to dosing (0)): 169 mm Hg | Blood pressure [3, 11]: 161 mm Hg | Blood pressure ([3]; day 2, prior to dosing (0)): 167 mm Hg | Blood pressure [3, 12]: 154 mm Hg | Blood pressure ([3]; day 4, prior to dosing (0)): 159 mm Hg | Blood pressure [3, 13]: 144 mm Hg | Blood pressure ([3]; day 6, prior to dosing (0)): 160 mm Hg | Blood pressure [3, 14]: 136 mm Hg | Blood pressure ([3]; day 8, prior to dosing (0)): 149 mm Hg | Blood pressure [3, 15]: 146 mm Hg | Blood pressure [3, 16]: 166 mm Hg | Blood glucose (Male Wistar rats [4]; 0 hr (prior to dosing)): 100 mg/dL | Blood glucose (Male Wistar rats [4]; 1 hr): 111 mg/dL | Blood glucose (Male Wistar rats [4]; 3 hr): 115 mg/dL | Blood glucose (Male Wistar rats [4]; 6 hr): 125 mg/dL | Effect on blood glucose level (Male Wistar rats [4]): substantially no effect | Blood glucose (Male Wistar rats [5]; 0 hr (prior to dosing)): 106 mg/dL | Blood glucose (Male Wistar rats [5]; 1 hr): 107 mg/dL | Blood glucose (Male Wistar rats [5]; 3 hr): 109 mg/dL | Blood glucose (Male Wistar rats [5]; 6 hr): 104 mg/dL | Blood glucose (Male Wistar rats [5]; 10 hr): 110 mg/dL | Effect on blood glucose level (Male Wistar rats [5]): substantially no effect | Change in electrolyte excretion (Male Wistar rats [6]; 100 mg/kg p.o.): no significant change | Change in urine volume (Male Wistar rats [6]; 100 mg/kg p.o.): no significant change | Urine volume (Male Wistar rats [6]; 100 mg/kg p.o.): 3.06 mL | Cl- (Male Wistar rats [6]; 100 mg/kg p.o.): 0.89 mEq | K+ (Male Wistar rats [6]; 100 mg/kg p.o.): 0.48 mEq | Na+ (Male Wistar rats [6]; 100 mg/kg p.o.): 0.64 mEq | Na+/K+ (Male Wistar rats [6]; 100 mg/kg p.o.): 1.34

O=S1(=O)NC(N2CCOCC2)=Nc2cc(C(F)(F)F)ccc21 [3-morpholino-6-trifluoromethyl-2H-1,2,4-benzothiadiazine 1,1-dioxide]
Antihypertensive activity [1]: no antihypertensive activity

O=S1(=O)NC(N2CCCCC2)=Nc2ccccc21 [Compound 2, 3-Piperidino-2H-1,2,4-benzothiadiazine 1,1-dioxide]
Fall in blood pressure [3]: did not cause any significant fall in blood pressure | Blood pressure [3, 10]: 180 mm Hg | Blood pressure ([3]; day 0, prior to dosing (0)): 187 mm Hg | Blood pressure [3, 11]: 181 mm Hg | Blood pressure ([3]; day 2, prior to dosing (0)): 186 mm Hg | Blood pressure [3, 12]: 183 mm Hg | Blood pressure ([3]; day 4, prior to dosing (0)): 182 mm Hg | Blood pressure [3, 13]: 186 mm Hg | Blood pressure ([3]; day 6, prior to dosing (0)): 186 mm Hg | Blood pressure [3, 14]: 183 mm Hg | Blood pressure ([3]; day 8, prior to dosing (0)): 186 mm Hg | Blood pressure [3, 15]: 184 mm Hg | Blood pressure [3, 16]: 182 mm Hg | Antihypertensive activity in oral administration ([3]; oral): does not show antihypertensive activity | Antihypertensive activity in intravenous administration ([1]; intravenous): slight antihypertensive activity

CN1CCN(C2=Nc3ccc(Cl)cc3S(=O)(=O)N2)CC1 [Compound A, 7-chloro-3-(4-methyl-1-piperazinyl)-2H-1,2,4-benzothiadiazine 1,1-dioxide]
Blood pressure [3, 10]: 172 mm Hg | Blood pressure ([3]; day 0, prior to dosing (0)): 172 mm Hg | Blood pressure [3, 11]: 155 mm Hg | Blood pressure ([3]; day 2, prior to dosing (0)): 167 mm Hg | Blood pressure [3, 12]: 151 mm Hg | Blood pressure ([3]; day 4, prior to dosing (0)): 158 mm Hg | Blood pressure [3, 13]: 131 mm Hg | Blood pressure ([3]; day 6, prior to dosing (0)): 144 mm Hg | Blood pressure [3, 14]: 135 mm Hg | Blood pressure ([3]; day 8, prior to dosing (0)): 143 mm Hg | Blood pressure [3, 15]: 139 mm Hg | Blood pressure [3, 16]: 165 mm Hg | Blood glucose levels after application of glucose, compared with control group [7]: same glucose tolerance pattern as the control group | Glucose tolerance [7]: no abnormality was observed in glucose tolerance | LD50 at 168 h [8, 17]: 740 mg/kg | LD50 at 168 h [8, 18]: 551 mg/kg | LD50 at 168 h [8, 19]: > 5000 mg/kg | LD50 at 168 h [8, 20]: > 5000 mg/kg | LD50 at 168 h [8, 21]: > 1000 mg/kg | LD50 at 168 h [8, 22]: > 1000 mg/kg | Blood glucose (Male Wistar rats [4]; 0 hr (prior to dosing)): 94 mg/dL | Blood glucose (Male Wistar rats [4]; 1 hr): 102 mg/dL | Blood glucose (Male Wistar rats [4]; 3 hr): 103 mg/dL | Blood glucose (Male Wistar rats [4]; 6 hr): 111 mg/dL | Effect on blood glucose level (Male Wistar rats [4]): substantially no effect | LD50 at 168 h [9, 17]: 242 mg/kg | LD50 at 168 h [9, 18]: 267 mg/kg | LD50 at 168 h [9, 19]: > 5000 mg/kg | LD50 at 168 h [9, 20]: > 5000 mg/kg | LD50 at 168 h [9, 21]: > 2410 mg/kg | LD50 at 168 h [9, 22]: > 2410 mg/kg | Blood glucose (Male Wistar rats [5]; 0 hr (prior to dosing)): 105 mg/dL | Blood glucose (Male Wistar rats [5]; 1 hr): 105 mg/dL | Blood glucose (Male Wistar rats [5]; 3 hr): 107 mg/dL | Blood glucose (Male Wistar rats [5]; 6 hr): 103 mg/dL | Blood glucose (Male Wistar rats [5]; 10 hr): 110 mg/dL | Effect on blood glucose level (Male Wistar rats [5]): substantially no effect | Change in Na+/K+ (Male Wistar rats [6]; 100 mg/kg p.o.): some increase | Change in electrolyte excretion (Male Wistar rats [6]; 100 mg/kg p.o.): no significant change | Change in urine volume (Male Wistar rats [6]; 100 mg/kg p.o.): no significant change | Urine volume (Male Wistar rats [6]; 100 mg/kg p.o.): 3.58 mL | Cl- (Male Wistar rats [6]; 100 mg/kg p.o.): 0.90 mEq | K+ (Male Wistar rats [6]; 100 mg/kg p.o.): 0.40 mEq | Na+ (Male Wistar rats [6]; 100 mg/kg p.o.): 0.78 mEq | Na+/K+ (Male Wistar rats [6]; 100 mg/kg p.o.): 1.93

NS(=O)(=O)c1cc2c(cc1Cl)NCNS2(=O)=O [Compound 4, Hydrochlorothiazide]
Blood pressure [3, 10]: 168 mm Hg | Blood pressure ([3]; day 0, prior to dosing (0)): 172 mm Hg | Blood pressure [3, 11]: 152 mm Hg | Blood pressure ([3]; day 2, prior to dosing (0)): 163 mm Hg | Blood pressure [3, 12]: 150 mm Hg | Blood pressure ([3]; day 4, prior to dosing (0)): 158 mm Hg | Blood pressure [3, 13]: 138 mm Hg | Blood pressure ([3]; day 6, prior to dosing (0)): 151 mm Hg | Blood pressure [3, 14]: 140 mm Hg | Blood pressure ([3]; day 8, prior to dosing (0)): 152 mm Hg | Blood pressure [3, 15]: 153 mm Hg | Blood pressure [3, 16]: 165 mm Hg | Blood glucose (Male Wistar rats [4]; 0 hr (prior to dosing)): 100 mg/dL | Blood glucose (Male Wistar rats [4]; 1 hr): 257 mg/dL | Blood glucose (Male Wistar rats [4]; 3 hr): 220 mg/dL | Blood glucose (Male Wistar rats [4]; 6 hr): 144 mg/dL | Blood glucose (Male Wistar rats [5]; 0 hr (prior to dosing)): 104 mg/dL | Blood glucose (Male Wistar rats [5]; 1 hr): 114 mg/dL | Blood glucose (Male Wistar rats [5]; 3 hr): 111 mg/dL | Blood glucose (Male Wistar rats [5]; 6 hr): 112 mg/dL | Blood glucose (Male Wistar rats [5]; 10 hr): 113 mg/dL | Change in Na+/K+ (Male Wistar rats [6]; 1 mg/kg p.o.): marked increase | Cl- (Male Wistar rats [6]; 1.0 mg/kg p.o.): 1.38 mEq

COc1cc2c(cc1OC)S(=O)(=O)NC(N1CCN(C)CC1)=N2 [Compound 1, 6,7-Dimethoxy-3-(4-methyl-1-piperazinyl)-2H-1,2,4-benzothiadiazine 1,1-dioxide]
Fall in blood pressure [3]: did not cause any significant fall in blood pressure | Blood pressure [3, 10]: 188 mm Hg | Blood pressure ([3]; day 0, prior to dosing (0)): 189 mm Hg | Blood pressure [3, 11]: 186 mm Hg | Blood pressure ([3]; day 2, prior to dosing (0)): 187 mm Hg | Blood pressure [3, 12]: 184 mm Hg | Blood pressure ([3]; day 4, prior to dosing (0)): 185 mm Hg | Blood pressure [3, 13]: 184 mm Hg | Blood pressure ([3]; day 6, prior to dosing (0)): 187 mm Hg | Blood pressure [3, 14]: 187 mm Hg | Blood pressure ([3]; day 8, prior to dosing (0)): 189 mm Hg | Blood pressure [3, 15]: 187 mm Hg | Blood pressure [3, 16]: 188 mm Hg | Antihypertensive activity [1]: no antihypertensive activity
